Source: the supplement of paper PMC4862054

Key:
Test in all cases: normalised viability (% of control), CellTiter-Blue; higher = more viable cells (about 100 = DMSO control)
Settings in all cases: incubation time: 72 h
[1] = system: HDQ-P1
Method: (§1)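 DSRT, CellTiter-Blue viability, 72 h incubation. Signal is normalised to DMSO and benzethonium chloride controls. Value is the normalised response at dose 8.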

[2] = system: CAL-51
Method: as §1

[3] = system: MDA-MB-453
Method: as §1

[4] = system: CAL-85-1
Method: as §1

[5] = system: DU-4475
Method: as §1

[6] = system: CAL-148
Method: as §1

[7] = system: HDQ-P1; remark: listed apart in the source
Method: (§2)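 DSRT, CellTiter-Blue viability, 72 h incubation. Signal is normalised to DMSO and benzethonium chloride controls. Value is the normalised response at dose 7.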

[8] = system: CAL-51; remark: listed apart in the source
Method: as §2

[9] = system: MDA-MB-453; remark: listed apart in the source
Method: as §2

[10] = system: CAL-85-1; remark: listed apart in the source
Method: as §2

[11] = system: DU-4475; remark: listed apart in the source
Method: as §2

[12] = system: CAL-148; remark: listed apart in the source
Method: as §2

[13] = system: HDQ-P1; remark: listed apart in the source
Method: (§3)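 DSRT, CellTiter-Blue viability, 72 h incubation. Signal is normalised to DMSO and benzethonium chloride controls. Value is the normalised response at dose 6.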

[14] = system: CAL-51; remark: listed apart in the source
Method: as §3

[15] = system: MDA-MB-453; remark: listed apart in the source
Method: as §3

[16] = system: CAL-85-1; remark: listed apart in the source
Method: as §3

[17] = system: DU-4475; remark: listed apart in the source
Method: as §3

[18] = system: CAL-148; remark: listed apart in the source
Method: as §3

Compound | normalised viability [1] [%] | normalised viability [2] [%] | normalised viability [3] [%] | normalised viability [4] [%] | normalised viability [5] [%] | normalised viability [6] [%] | normalised viability [13] [%] | normalised viability [14] [%] | normalised viability [15] [%] | normalised viability [16] [%] | normalised viability [17] [%] | normalised viability [18] [%] | other results
C[C@]12CC[C@@H]3c4ccc(O)cc4C[C@@H](CCCCCCCCC[S+]([O-])CCCC(F)(F)C(F)(F)F)[C@H]3[C@@H]1CC[C@@H]2O (stereo partly specified) [Fulvestrant] (3000 nM) | 90.4 | 99.7 | 92.8 | 94.6 | 107 | 104 | – | – | – | – | – | – | –
O=P1(NCCCl)OCCCN1CCCl (stereo unspecified) [Ifosfamide] (3000 nM) | 107 | 97.4 | 112 | 92.9 | 87.2 | 106 | – | – | – | – | – | – | –
CC(C)Cn1cnc2c(N)nc3ccccc3c21 [Imiquimod] (1000 nM) | – | – | – | – | – | – | – | – | – | – | – | – | normalised viability [7]: 86.1%; normalised viability [8]: 99.8%; normalised viability [9]: 104%; normalised viability [10]: 92.8%; normalised viability [11]: 93.3%; normalised viability [12]: 106%
CC(C)Cn1cnc2c(N)nc3ccccc3c21 [Imiquimod] (3000 nM) | 89.1 | 107 | 95.7 | 107 | 107 | 95.5 | – | – | – | – | – | – | –
CC1(C)NC(=O)N(c2ccc([N+](=O)[O-])c(C(F)(F)F)c2)C1=O [Nilutamide] (3000 nM) | 127 | 96.9 | 99 | 96.8 | 106 | 99.1 | – | – | – | – | – | – | –
Cc1ccc(C(=O)Nc2ccc(CN3CCN(C)CC3)c(C(F)(F)F)c2)cc1C#Cc1cnc2cccnn12 [Ponatinib] (30 nM) | – | – | – | – | – | – | 97 | 86.3 | 85.3 | 90 | 81.4 | 106 | –
Cc1ccc(C(=O)Nc2ccc(CN3CCN(C)CC3)c(C(F)(F)F)c2)cc1C#Cc1cnc2cccnn12 [Ponatinib] (300 nM) | 58.9 | 73.9 | 54.3 | 80.5 | 73.8 | 87.7 | – | – | – | – | – | – | –
Cn1c(Nc2ccc(C(F)(F)F)cc2)nc2cc(Oc3ccnc(-c4ncc(C(F)(F)F)[nH]4)c3)ccc21 [RAF265] (30 nM) | – | – | – | – | – | – | 51.7 | 89.8 | 88.3 | 88.9 | 111 | 86.2 | –
Cn1c(Nc2ccc(C(F)(F)F)cc2)nc2cc(Oc3ccnc(-c4ncc(C(F)(F)F)[nH]4)c3)ccc21 [RAF265] (300 nM) | 39.4 | 66.9 | 92.5 | 71.5 | 71.3 | 85.5 | – | – | – | – | – | – | –
CNCc1ccc(-c2[nH]c3cc(F)cc4c3c2CCNC4=O)cc1 [Rucaparib] (300 nM) | – | – | – | – | – | – | 43.2 | 110 | 108 | 92.6 | 77.4 | 91.7 | –
CNCc1ccc(-c2[nH]c3cc(F)cc4c3c2CCNC4=O)cc1 [Rucaparib] (3000 nM) | 82.9 | 102 | 87.5 | 79.3 | 87.3 | 87 | – | – | – | – | – | – | –
N[C@@H](CSC(c1ccccc1)(c1ccccc1)c1ccccc1)C(=O)O [S-trityl-L-cysteine] (1200 nM) | – | – | – | – | – | – | 68.4 | 78.5 | 90.5 | 95.1 | 97.8 | 114 | –
N[C@@H](CSC(c1ccccc1)(c1ccccc1)c1ccccc1)C(=O)O [S-trityl-L-cysteine] (12000 nM) | 84.6 | 98.6 | 99.1 | 36.7 | 114 | 106 | – | – | – | – | – | – | –
CN(N=O)C(=O)N[C@@H](C=O)[C@@H](O)[C@H](O)[C@H](O)CO [Streptozocin] (300 nM) | – | – | – | – | – | – | 85.4 | 108 | 102 | 106 | 97.2 | 107 | –
CN(N=O)C(=O)N[C@@H](C=O)[C@@H](O)[C@H](O)[C@H](O)CO [Streptozocin] (3000 nM) | 110 | 108 | 109 | 97.8 | 95.3 | 98.7 | – | – | – | – | – | – | –
O=C1CCC(N2C(=O)c3ccccc3C2=O)C(=O)N1 (stereo unspecified) [Thalidomide] (300 nM) | – | – | – | – | – | – | 80.2 | 88.4 | 103 | 105 | 99.6 | 117 | –
O=C1CCC(N2C(=O)c3ccccc3C2=O)C(=O)N1 (stereo unspecified) [Thalidomide] (3000 nM) | 99.7 | 89.8 | 99.4 | 91.7 | 110 | 113 | – | – | – | – | – | – | –
CN[C@@H]1C[C@H]2O[C@@](C)([C@@H]1OC)n1c3ccccc3c3c4c(c5c6ccccc6n2c5c31)C(=O)N[C@H]4O [UCN-01] (300 nM) | – | – | – | – | – | – | 26.2 | 31.2 | 38.4 | 41.8 | 37.6 | 87 | –
Clc1ccc(Nc2nnc(Cc3ccncc3)c3ccccc23)cc1 [Vatalanib] (300 nM) | – | – | – | – | – | – | 78.7 | 98.3 | 105 | 94.6 | 95 | 88.5 | –
CCC1=C[C@@H]2CN(C1)Cc1c([nH]c3ccccc13)[C@@](C(=O)OC)(c1cc3c(cc1OC)N(C)[C@H]1[C@@](O)(C(=O)OC)[C@H](OC(C)=O)[C@]4(CC)C=CCN5CC[C@]31[C@@H]54)C2 [Vinorelbine] (300 nM) | – | – | – | – | – | – | 40.5 | 35 | 25.2 | 31.4 | 53.9 | 24.5 | –
Oc1nc(-c2ccc(C(F)(F)F)cc2)nc2c1CSCC2 [XAV-939] (300 nM) | – | – | – | – | – | – | 112 | 99.3 | 93.8 | 89.2 | 116 | 93.3 | –
